Assay results taken from EP0346068A2, “D-Cys6 vasopressin antagonists” (SMITHKLINE BECKMAN CORPORATION, priority 1988, dated 1989).
Positions of bridges follow the written chain, without caps; N, C: chain ends. No end group written: not given here.

Test system: Adult female mongrel dogs
Assay: Partial agonist screen in indomethacin-treated dogs under water diuresis (urine volume and osmolality)
Format: in vivo
Protocol: The compounds are tested for partial agonist activity by the following procedures:
Adult female mongrel dogs are fasted for 18 hours prior to testing. The studies are conducted under steady state water diuresis initiated by a 5% body weight water load and a 3% dextrose infusion. At 0 hour, indomethacin, a cyclooxygenase inhibitor, is administered (2 mg/kg i.v. bolus and 3 mg/kg/hr i.v. infusion). Twenty minutes later, the test compound is administered i.v. Urine volume and osmolality are measured every 10 minutes for 4 hours.
The indomethacin dog model may predict the agonist activity of a compound in man.

Substance: ADH: the natural anti-diuretic hormone (ADH), vasopressin (CYFQNCPRG-NH2; disulfide 1-6; ends not checked; UniProt P01185 20-28, looked up)
- antidiuretic activity (urine osmolality, volume) after treatment with indomethacin: potentiates the antidiuretic activity
